PubChem BioAssay AID330 (DTP/NCI, 2004)
Toxic doses and inconclusive results are not listed.

Test system: P388 leukemia ip, CD2F1 mice, survival T/C
Test: NCI In Vivo Anticancer Drug Screen. Data for tumor model P388 Leukemia (intraperitoneal) in CD2F1 (CDF1) mice
Conditions: endpoint: median survival time, higher = longer survival
How it was run: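 Mice carrying the transplanted tumor received test compound or vehicle. Survival was recorded in each group, and the value is the treated-group measurement divided by that of the vehicle-treated control group.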

[1] = dose: 50.0 mg/kg/injection, schedule: Q04DX003 (ip), vehicle: saline with Tween-80
[2] = dose: 50.0 mg/kg/injection, schedule: Q01DX009 (ip), vehicle: Klucel (hydroxypropylcellulose) (HPC)
[3] = dose: 100.0 mg/kg/injection, schedule: Q01DX009 (ip), vehicle: Klucel (hydroxypropylcellulose) (HPC)
[4] = dose: 50.0 mg/kg/injection, schedule: Q01DX009 (ip), vehicle: saline with Tween-80
[5] = dose: 100.0 mg/kg/injection, schedule: Q01DX009 (ip), vehicle: saline with Tween-80
[6] = dose: 200.0 mg/kg/injection, schedule: Q01DX009 (ip), vehicle: saline with Tween-80
[7] = dose: 60.0 mg/kg/injection, schedule: Q01DX005 (ip), vehicle: saline with Tween-80
[8] = dose: 120.0 mg/kg/injection, schedule: Q01DX005 (ip), vehicle: saline with Tween-80
[9] = dose: 50.0 mg/kg/injection, schedule: Q01DX005 (ip), vehicle: Klucel (hydroxypropylcellulose) (HPC)
[10] = dose: 25.0 mg/kg/injection, schedule: Q01DX005 (ip), vehicle: Klucel (hydroxypropylcellulose) (HPC)
[11] = dose: 100.0 mg/kg/injection, schedule: Q04DX002 (ip), vehicle: saline with Tween-80
[12] = dose: 200.0 mg/kg/injection, schedule: Q04DX002 (ip), vehicle: saline with Tween-80
[13] = dose: 400.0 mg/kg/injection, schedule: Q04DX002 (ip), vehicle: saline with Tween-80
[14] = dose: 60.0 mg/kg/injection, schedule: Q01DX005 (ip), vehicle: saline
[15] = dose: 120.0 mg/kg/injection, schedule: Q01DX005 (ip), vehicle: saline
[16] = dose: 240.0 mg/kg/injection, schedule: Q01DX005 (ip), vehicle: saline
[17] = dose: 100.0 mg/kg/injection, schedule: Q01DX009 (ip), vehicle: saline
[18] = dose: 100.0 mg/kg/injection, schedule: Q04DX003 (ip), vehicle: Klucel (hydroxypropylcellulose) (HPC)
[19] = dose: 200.0 mg/kg/injection, schedule: Q04DX003 (ip), vehicle: Klucel (hydroxypropylcellulose) (HPC)

COc1cc(C=Nc2ccc(C(=O)O)cc2)ccc1N(CCCl)CCCl
T/C (dose: 37.5 mg/kg/injection, schedule: Q04DX003 (ip), vehicle: saline with Tween-80): 155 % of control | T/C [1]: 90 % of control

COC(=O)CC1(C(=O)OC)C2=C(C(=O)c3ccccc3C2=O)N2CCCC21 (stereo unspecified)
T/C (dose: 12.5 mg/kg/injection, schedule: Q01DX009 (ip), vehicle: Klucel (hydroxypropylcellulose) (HPC)): 99 % of control | T/C (dose: 25.0 mg/kg/injection, schedule: Q01DX009 (ip), vehicle: Klucel (hydroxypropylcellulose) (HPC)): 100 % of control | T/C [2]: 106 % of control | T/C [3]: 103 % of control

COc1cc(/C=N/NP(=S)(Oc2ccc(C(C)(C)C)cc2)Oc2ccc(C(C)(C)C)cc2)cc(OC)c1O
T/C [2]: 99 % of control | T/C [3]: 99 % of control

Cc1nc(N)nc(N)c1N1CCN(c2ccc(C(=O)NC(C(=O)O)C(=O)O)cc2)CC1
T/C (dose: 3.75 mg/kg/injection, schedule: Q01DX005 (ip), vehicle: Klucel + Tween-80): 184 % of control | T/C (dose: 7.5 mg/kg/injection, schedule: Q01DX005 (ip), vehicle: Klucel + Tween-80): 215 % of control | T/C (dose: 15.0 mg/kg/injection, schedule: Q01DX005 (ip), vehicle: Klucel + Tween-80): 87 % of control

COC1/C=C/OC2(C)Oc3c(C)c(O)c4c(O)c(c(C=NN5C(C)CN(Cc6ccc(Cl)cc6)CC5C)c(O)c4c3C2=O)NC(=O)/C(C)=C/C=C/C(C)C(O)C(C)C(O)C(C)C(OC(C)=O)C1C (stereo unspecified)
T/C [4]: 98 % of control | T/C [5]: 95 % of control | T/C [6]: 95 % of control

N#Cc1ccc(OC(=O)Nc2ccc(F)cc2)cc1
T/C [7]: 106 % of control | T/C [8]: 104 % of control

CC1=Nc2c(C)noc2CC(c2ccccc2O)C1 (stereo unspecified)
T/C [9]: 101 % of control | T/C (dose: 100.0 mg/kg/injection, schedule: Q01DX005 (ip), vehicle: Klucel (hydroxypropylcellulose) (HPC)): 106 % of control

CCCCCCCCCCOC(=O)c1ccc(O)cc1
T/C [4]: 97 % of control | T/C [5]: 102 % of control | T/C [6]: 97 % of control

CCOC(=O)N1CCN(C(=S)NNC(C)c2cc3ccccc3cn2)CC1 (stereo unspecified)
T/C (dose: 6.25 mg/kg/injection, schedule: Q01DX005 (ip), vehicle: saline with Tween-80): 103 % of control | T/C (dose: 12.5 mg/kg/injection, schedule: Q01DX005 (ip), vehicle: saline with Tween-80): 113 % of control

CC(=NC(C)(C)C)Nc1ccc(Cl)cc1
T/C [4]: 103 % of control | T/C [5]: 109 % of control

C1=NCc2ccsc2-n2cccc21
T/C [10]: 100 % of control | T/C [9]: 105 % of control

CC(=O)C1C(=O)OC(C)(C)C1C=C(Cl)Cl (stereo unspecified)
T/C [11]: 101 % of control | T/C [12]: 107 % of control | T/C [13]: 109 % of control

NC1(O)C(=O)NC(=O)NC1=O
T/C [14]: 101 % of control | T/C [15]: 93 % of control | T/C [16]: 88 % of control

COc1ccc(CC2c3cc(OC)c(OC)cc3C=CN2C)cc1OC (stereo unspecified)
T/C (dose: 12.5 mg/kg/injection, schedule: Q01DX005 (ip), vehicle: Klucel (hydroxypropylcellulose) (HPC)): 99 % of control | T/C [10]: 103 % of control | T/C [9]: 96 % of control

O=C1C=C[C@@H](COC(c2ccccc2)(c2ccccc2)c2ccccc2)O1
T/C [11]: 92 % of control | T/C [12]: 86 % of control | T/C [13]: 89 % of control

CNC(=N)c1ccc(NC(=N)c2ccc(NC(=N)c3ccc(NC(=N)c4ccc(C(=N)NC)cc4)cc3)cc2)cc1
T/C (dose: 9.0 mg/kg/injection, schedule: Q01DX009 (ip), vehicle: saline with Tween-80): 154 % of control | T/C (dose: 13.0 mg/kg/injection, schedule: Q01DX009 (ip), vehicle: saline with Tween-80): 190 % of control | T/C (dose: 20.0 mg/kg/injection, schedule: Q01DX009 (ip), vehicle: saline with Tween-80): 254 % of control

CCOC1OCN(C)CC1(C)C (stereo unspecified)
T/C (dose: 50.0 mg/kg/injection, schedule: Q04DX003 (ip), vehicle: saline): 109 % of control | T/C [17]: 150 % of control | T/C (dose: 100.0 mg/kg/injection, schedule: Q04DX003 (ip), vehicle: saline): 113 % of control | T/C (dose: 200.0 mg/kg/injection, schedule: Q04DX003 (ip), vehicle: saline): 109 % of control

CC1=Nc2cc(Cl)c(Cl)cc2N(C)/C1=C/C1=C(Cl)C(=O)c2ccccc2C1=O
T/C (dose: 6.25 mg/kg/injection, schedule: Q01DX009 (ip), vehicle: saline with Tween-80): 114 % of control | T/C (dose: 12.5 mg/kg/injection, schedule: Q01DX009 (ip), vehicle: saline with Tween-80): 95 % of control | T/C (dose: 25.0 mg/kg/injection, schedule: Q01DX009 (ip), vehicle: saline with Tween-80): 107 % of control | T/C [4]: 105 % of control | T/C [5]: 104 % of control

c1ccc2c(c1)CCc1ccccc1C2NC1=NCCO1
T/C (dose: 12.5 mg/kg/injection, schedule: Q04DX003 (ip), vehicle: saline with Tween-80): 90 % of control | T/C (dose: 25.0 mg/kg/injection, schedule: Q04DX003 (ip), vehicle: saline with Tween-80): 90 % of control | T/C [1]: 86 % of control

Cc1ccc(S(=O)(=O)OCCN(CCN(CCOS(=O)(=O)c2ccc(C)cc2)c2ccccc2)c2ccccc2)cc1
T/C [18]: 99 % of control | T/C [19]: 110 % of control | T/C (dose: 400.0 mg/kg/injection, schedule: Q04DX003 (ip), vehicle: Klucel (hydroxypropylcellulose) (HPC)): 101 % of control

CC(=O)/C(=C\C=C\c1ccccc1)C(=O)CCN(C)C
T/C (dose: 50.0 mg/kg/injection, schedule: Q01DX005 (ip), vehicle: saline): 98 % of control | T/C (dose: 100.0 mg/kg/injection, schedule: Q01DX005 (ip), vehicle: saline): 109 % of control | T/C (dose: 200.0 mg/kg/injection, schedule: Q01DX005 (ip), vehicle: saline): 118 % of control

C=C1C(=O)OC2CCCCC12 (stereo unspecified)
T/C (dose: 50.0 mg/kg/injection, schedule: Q04DX003 (ip), vehicle: Klucel (hydroxypropylcellulose) (HPC)): 104 % of control | T/C [18]: 105 % of control | T/C [19]: 101 % of control

CCOC(=O)c1ccc(NC(=O)Nc2ccccc2OC)cc1
T/C (dose: 3.75 mg/kg/injection, schedule: Q01DX005 (ip), vehicle: Klucel (hydroxypropylcellulose) (HPC)): 94 % of control | T/C (dose: 7.5 mg/kg/injection, schedule: Q01DX005 (ip), vehicle: Klucel (hydroxypropylcellulose) (HPC)): 97 % of control | T/C (dose: 15.0 mg/kg/injection, schedule: Q01DX005 (ip), vehicle: Klucel (hydroxypropylcellulose) (HPC)): 92 % of control | T/C (dose: 60.0 mg/kg/injection, schedule: Q01DX005 (ip), vehicle: Klucel (hydroxypropylcellulose) (HPC)): 88 % of control | T/C (dose: 240.0 mg/kg/injection, schedule: Q01DX005 (ip), vehicle: Klucel (hydroxypropylcellulose) (HPC)): 86 % of control

O=S(=O)(O)c1ccc2c(c1)C1C(C3C2C2(Cl)C(Cl)=C(Cl)C3(Cl)C2(Cl)Cl)C2(Cl)C(Cl)=C(Cl)C1(Cl)C2(Cl)Cl (stereo unspecified)
T/C (dose: 50.0 mg/kg/injection, schedule: Q01DX009 (ip), vehicle: saline): 108 % of control | T/C [17]: 108 % of control | T/C (dose: 200.0 mg/kg/injection, schedule: Q01DX009 (ip), vehicle: saline): 114 % of control

C[N+](C)(C)N=P(O)(N[N+](C)(C)C)Oc1ccccc1 (stereo unspecified)
T/C [14]: 95 % of control | T/C [15]: 100 % of control | T/C [16]: 95 % of control

COc1ccc2nc3cc(Cl)ccc3c(NCCCCCCNc3c4ccc(Cl)cc4nc4ccc(OC)nc34)c2n1
T/C [2]: 93 % of control | T/C [3]: 105 % of control

CN(C)/C=N/c1c(CO)c(-c2ccccc2)nn1-c1ccccc1
T/C [4]: 104 % of control | T/C [5]: 100 % of control | T/C [6]: 104 % of control | T/C (dose: 400.0 mg/kg/injection, schedule: Q01DX009 (ip), vehicle: saline with Tween-80): 105 % of control

NC(=O)c1ccccc1N1CCCCC1
T/C (dose: 50.0 mg/kg/injection, schedule: Q01DX005 (ip), vehicle: saline with Tween-80): 99 % of control | T/C (dose: 100.0 mg/kg/injection, schedule: Q01DX005 (ip), vehicle: saline with Tween-80): 100 % of control | T/C (dose: 200.0 mg/kg/injection, schedule: Q01DX005 (ip), vehicle: saline with Tween-80): 91 % of control

CN1CCC(O)(C(O)(c2ccccc2)c2ccccc2)CC1
T/C [7]: 96 % of control | T/C [8]: 100 % of control | T/C (dose: 240.0 mg/kg/injection, schedule: Q01DX005 (ip), vehicle: saline with Tween-80): 103 % of control
